The values below come from patent publication US7563782B2, “T-type calcium channel blocker” (Nissan Chemical Industries, Ltd., priority 2003, dated 2009).

One test has as its target T1, T-type Ca channel (α1G) (Homo sapiens, UniProt O43497).
T1 construct: expressed in transfected cells; host or cells: BHK (baby hamster kidney) cells
Kind of test: Pharmacological Test Example 1: whole cell patch clamp, Ca current inhibition in BHK cells expressing T-type Ca channel. Type of test: cell-based. The method, then:
(§1) Pharmacological Test Example 1 (effect on L-type and T-type Ca (calcium) channel expressed in mammalian cells (BHK cells))
(§2) In this test, an electrophysiological evaluation was carried out by use of BHK (baby hamster kidney) cells in which L-type Ca channel or T-type Ca channel (α1G) was expressed according to the method of Wakamori M et al. (Wakamori M et al.: J Biol Chem 273, 34857-34867,1998) based on the whole cell patch clamp method. Each Ca-ion current was measured through a patch clamp amplifier as an inward current when depolarization pulse (10 mV in L-type Ca channel, −20 mV in T-type Ca channel) was applied to cells maintained at a membrane potential of −80 mV. Optically active R-form or S-form of efonidipine was dissolved in extracellular solution and applied with perfusion. At 5 minutes after the application, any variation in Ca-ion current was measured. The results are shown in Ca current inhibition (%) of the compound of the present invention to Ca current (100%) in vehicle control.
For orientation: The patch-clamp technique gives a direct electrical read-out from membranes.

For another test, the system named is L-type Ca channel. Description: Pharmacological Test Example 1: whole cell patch clamp, Ca current inhibition in BHK cells expressing L-type Ca channel. Type of test: cell-based. The settings on record: for Inhibition (%): L-type Ca channel, BHK cells, 5 minutes after application, mean ± SE. The method, then:
as §1, §2

[1] abbreviates: T-type Ca channel, concentration 0.1 μM, BHK cells, 5 minutes after application, mean ± SE, 0.1 µM.

The structures appear in SMILES notation.

T1 sequence (O43497 whole entry): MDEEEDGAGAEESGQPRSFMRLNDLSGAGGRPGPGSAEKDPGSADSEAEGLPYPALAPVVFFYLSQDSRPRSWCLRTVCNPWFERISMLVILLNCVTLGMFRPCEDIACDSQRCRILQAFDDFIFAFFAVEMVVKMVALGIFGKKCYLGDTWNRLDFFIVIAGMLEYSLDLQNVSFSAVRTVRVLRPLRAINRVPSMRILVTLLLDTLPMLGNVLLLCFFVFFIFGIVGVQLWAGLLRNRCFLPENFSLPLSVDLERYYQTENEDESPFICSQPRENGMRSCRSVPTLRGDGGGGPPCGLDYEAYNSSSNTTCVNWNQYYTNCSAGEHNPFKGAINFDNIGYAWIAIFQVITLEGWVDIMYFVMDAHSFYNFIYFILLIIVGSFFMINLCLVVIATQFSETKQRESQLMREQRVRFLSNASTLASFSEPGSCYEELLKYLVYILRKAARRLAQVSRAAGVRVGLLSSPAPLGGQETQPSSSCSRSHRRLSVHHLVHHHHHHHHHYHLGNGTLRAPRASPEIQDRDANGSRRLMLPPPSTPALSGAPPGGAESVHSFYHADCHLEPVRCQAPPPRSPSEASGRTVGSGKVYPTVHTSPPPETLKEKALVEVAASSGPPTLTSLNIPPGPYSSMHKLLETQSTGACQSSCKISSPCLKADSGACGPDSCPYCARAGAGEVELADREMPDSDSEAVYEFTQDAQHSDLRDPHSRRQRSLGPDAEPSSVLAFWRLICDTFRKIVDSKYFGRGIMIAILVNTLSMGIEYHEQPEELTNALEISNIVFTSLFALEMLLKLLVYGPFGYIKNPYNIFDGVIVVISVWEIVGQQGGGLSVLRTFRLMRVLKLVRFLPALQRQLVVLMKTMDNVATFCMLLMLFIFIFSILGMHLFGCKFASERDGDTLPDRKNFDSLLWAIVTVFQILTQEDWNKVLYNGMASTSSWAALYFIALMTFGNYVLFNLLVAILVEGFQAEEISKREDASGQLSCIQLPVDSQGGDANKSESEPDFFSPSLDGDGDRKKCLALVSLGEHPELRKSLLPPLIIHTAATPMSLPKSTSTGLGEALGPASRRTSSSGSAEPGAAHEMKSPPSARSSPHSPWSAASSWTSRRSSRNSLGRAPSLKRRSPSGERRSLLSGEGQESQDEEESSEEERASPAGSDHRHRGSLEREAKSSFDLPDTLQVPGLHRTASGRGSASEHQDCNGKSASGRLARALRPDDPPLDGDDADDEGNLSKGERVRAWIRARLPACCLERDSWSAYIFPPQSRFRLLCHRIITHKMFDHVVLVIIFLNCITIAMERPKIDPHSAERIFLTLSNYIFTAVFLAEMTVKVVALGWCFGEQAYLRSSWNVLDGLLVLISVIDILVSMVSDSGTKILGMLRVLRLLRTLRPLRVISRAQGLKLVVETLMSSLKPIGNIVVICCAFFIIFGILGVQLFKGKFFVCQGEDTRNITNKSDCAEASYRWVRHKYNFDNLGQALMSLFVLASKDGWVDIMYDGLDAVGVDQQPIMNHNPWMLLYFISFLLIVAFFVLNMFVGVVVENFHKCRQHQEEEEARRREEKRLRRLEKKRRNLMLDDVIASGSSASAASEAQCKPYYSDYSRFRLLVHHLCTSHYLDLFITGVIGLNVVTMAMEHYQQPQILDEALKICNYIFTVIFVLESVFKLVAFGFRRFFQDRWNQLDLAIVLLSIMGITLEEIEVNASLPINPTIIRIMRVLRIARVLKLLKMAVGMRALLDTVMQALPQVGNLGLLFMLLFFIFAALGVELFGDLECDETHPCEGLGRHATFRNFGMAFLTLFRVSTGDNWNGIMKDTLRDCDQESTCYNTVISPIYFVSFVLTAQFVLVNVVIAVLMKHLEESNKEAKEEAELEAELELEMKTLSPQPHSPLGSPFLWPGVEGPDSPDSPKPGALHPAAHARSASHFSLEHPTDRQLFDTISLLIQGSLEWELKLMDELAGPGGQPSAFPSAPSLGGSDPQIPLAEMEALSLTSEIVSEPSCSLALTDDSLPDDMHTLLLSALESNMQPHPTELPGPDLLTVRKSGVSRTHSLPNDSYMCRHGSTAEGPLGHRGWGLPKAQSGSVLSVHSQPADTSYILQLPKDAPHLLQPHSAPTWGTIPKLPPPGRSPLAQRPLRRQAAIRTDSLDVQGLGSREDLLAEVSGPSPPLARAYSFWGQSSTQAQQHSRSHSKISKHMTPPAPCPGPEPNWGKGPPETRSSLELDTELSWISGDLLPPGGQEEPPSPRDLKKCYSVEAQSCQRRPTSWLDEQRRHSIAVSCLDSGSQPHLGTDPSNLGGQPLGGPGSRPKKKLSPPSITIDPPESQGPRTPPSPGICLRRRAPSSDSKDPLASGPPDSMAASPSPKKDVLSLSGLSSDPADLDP

Consider `CC1=C(C(=O)OCCN(Cc2ccccc2)c2ccccc2)C(c2cccc([N+](=O)[O-])c2)C(P2(=O)OCC(C)(C)CO2)=C(C)N1` (centres unmarked) [Efonidipine R-form, 1,4-dihydro-2,6-dimethyl-5-(5,5-dimethyl-2-oxo-1,3,2-dioxaphosphorinan-2-yl)-4-(3-nitrophenyl)-3-pyridine carboxylic acid 2-[benzyl (phenyl)amino]ethylester], for which testing at 1 µM against T-type Ca channel (α1G) (BHK, T-type Ca channel, concentration 1 μM, BHK cells, 5 minutes after application, mean ± SE) gave an inhibition of 41.7 ± 5.3%. Also, 10 µM produced 72.7 ± 5.6% inhibition against T-type Ca channel (α1G) (BHK, T-type Ca channel, concentration 10 μM, BHK cells, 5 minutes after application, mean ± SE). In addition, the “Inhibition (%)” value worked out at 19.4 ± 4.88% at T-type Ca channel (α1G) (setting [1]) and 2.2 ± 3.4% in the test with L-type Ca channel (concentration 10 μM). In addition, the “selectivity for T-type Ca channel” value on T-type Ca channel (α1G) (T-type versus L-type Ca channel) is “high selectivity”. In addition, the “inhibition for T-type Ca channel (in words)” value at T-type Ca channel (α1G) (concentration of 0.1 μM or more) is “concentration-dependent inhibition”. For the same compound, in the test with L-type Ca channel (concentration of 10 μM), the “inhibition for L-type Ca channel (in words)” value was “did not show any inhibition”.
Consider `CC1=C(C(=O)OCCN(Cc2ccccc2)c2ccccc2)C(c2cccc([N+](=O)[O-])c2)C(P2(=O)OCC(C)(C)CO2)=C(C)N1` (centres unmarked) [Efonidipine S-form, 1,4-dihydro-2,6-dimethyl-5-(5,5-dimethyl-2-oxo-1,3,2-dioxaphosphorinan-2-yl)-4-(3-nitrophenyl)-3-pyridine carboxylic acid 2-[benzyl (phenyl)amino]ethylester, reference compound], for which the “Inhibition (%)” value on T-type Ca channel (α1G) (setting [1]) came out at 7.7%; on T-type Ca channel (α1G) (T-type Ca channel, concentration 1 μM, BHK cells, 5 minutes after application, mean ± SE, 1 µM), 42.9 ± 8.4%; on T-type Ca channel (α1G) (T-type Ca channel, concentration 10 μM, BHK cells, 5 minutes after application, mean ± SE, 10 µM), 75.6 ± 7.1%; with L-type Ca channel (concentration 1 μM), 55.6±7.1%.
